Values quoted from earlier work as cited in patent publication US20250281408A1, “AMORPHOUS SOLID DISPERSIONS AND PHARMACEUTICAL COMPOSITIONS COMPRISING THE SAME” (Shenzhen Pharmacin Co., Ltd., priority 2022, published 2025).
Where two headings read alike, the source gives them in different places.

Experiments:
[1] = relative to fasted conditions, healthy subjects
[2] = fed conditions
[3] = high-fat or low-fat meal

CC(=O)O[C@H]1CC[C@@]2(C)C(=CC[C@@H]3[C@@H]2CC[C@]2(C)C(c4cccnc4)=CC[C@@H]32)C1 [Abiraterone Acetate]
solubility in water: very poorly water soluble

COc1cc2nccc(Oc3ccc(NC(=O)C4(C(=O)Nc5ccc(F)cc5)CC4)cc3)c2cc1OC [Cabozantinib]
increase of AUC by a high-fat meal [1]: 57%
increase of Cmax by a high-fat meal [1]: 41%
solubility in aqueous solution / aqueous media: practically insoluble

CC1(C)CCC(CN2CCN(c3ccc(C(=O)NS(=O)(=O)c4ccc(NCC5CCOCC5)c([N+](=O)[O-])c4)c(Oc4cnc5[nH]ccc5c4)c3)CC2)=C(c2ccc(Cl)cc2)C1 [Venetoclax]
solubility in water: poor water solubility

CCc1cc2c(cc1N1CCC(N3CCOCC3)CC1)C(C)(C)c1[nH]c3cc(C#N)ccc3c1C2=O [alectinib]
absolute bioavailability [2]: 37%
solubility in aqueous solution / aqueous media: very hard to dissolve

O=C1[C@@H]2[C@H]3CC[C@H](C3)[C@@H]2C(=O)N1C[C@@H]1CCCC[C@H]1CN1CCN(c2nsc3ccccc23)CC1 [lurasidone]
solubility in water: very slightly soluble

Cc1ccc(Nc2nccc(N(C)c3ccc4c(C)n(C)nc4c3)n2)cc1S(N)(=O)=O [pazopanib]
increase in AUC with food [3]: approximately 2 fold
increase in Cmax with food [3]: approximately 2 fold
solubility in aqueous media (above pH 4): practically insoluble
solubility in aqueous media (pH 1): very slightly soluble

N#Cc1ccc2[nH]cc(CCCCN3CCN(c4ccc5oc(C(N)=O)cc5c4)CC3)c2c1 [vilazodone]
solubility in water: very slightly soluble
